This is an account of results in patent US6974797B2, “Cross-linked glycopeptide-cephalosporin antibiotics” (Theravance, Inc., priority 2001, dated 2005).

Converted amounts (≈) assume the structure as drawn. Bounds are passed on as bounds.

Series [1] deals with methicillin-resistant S. aureus strains. Briefly: Minimal inhibitory concentration (MIC), broth microdilution, individual MRSA strains. It is filed as cell-based, Staphylococcus aureus. The method, then:
(§1) Minimal inhibitory concentration (MICs) assays were performed using the broth microdilution method set forth in NCCLS guidelines (see, NCCLS. 2000. Methods for Dilution Antimicrobial Susceptibility Tests for Bacteria That Grow Aerobically; Approved Standard—Fifth Ed., Vol. 20, No. 2). Bacterial strains were obtained from the American Type Tissue Culture Collection (ATCC), Stanford University Hospital (SU), Kaiser Permanente Regional Laboratory in Berkeley (KPB), Massachusetts General Hospital (MGH), the Centers for Disease Control (CDC), the San Francisco Veterans' Administration Hospital (SFVA) or the University of California San Francisco Hospital (UCSF). Vancomycin-resistant enterococci were phenotyped as Van A or Van B based on their sensitivity to teicoplanin. Some vancomycin-resistant enterococci that had been genotyped as Van A, Van B, Van C1 or Van C2 were also obtained from the Mayo Clinic.
In this assay, cryopreserved bacterial cultures of reference and clinical strains were streaked for isolation on appropriate agar medium (i.e., Trypticase Soy Agar, Trypticase Soy Agar with defibrinated sheep erthrocytes, Brain Heart Infusion Agar, Chocolate Agar). Following incubation to allow formation of colonies, these plates were sealed with parafilm and stored refrigerated for up to two weeks. For preparation of assay inocula and to ensure low variability, several colonies from a bacterial isolate cultured on the agar plates were pricked with an inoculating loop and aseptically transferred to Mueller-Hinton Broth (supplemented with divalent cations to required levels based on manufacturer's certification). The broth culture was grown overnight at 35° C., diluted in fresh prewarmed broth and grown to log phase; this is equivalent to a 0.5 MacFarland standard or 1×10^8 colony forming units per milliliter (CFU/mL). Not all cell suspensions, due to species variability, contained 1×10^8 CFU/mL when turbidity is equivalent to the MacFarland standard, therefore acceptable adjustments (based on NCCLS guidelines) were made in dilutions of different bacterial strains. […] The plates were then incubated 18-24 hours at 35° C. The MIC was read visually as the lowest concentration well with no bacterial growth. Bacterial growth is defined as more than three pinpoint colonies, a button of precipitated cells larger than 2 mm in diameter, or obvious turbidity.
Strains routinely tested in the initial screen included methicillin-sensitive Staphylococcus aureus (MSSA), methicillin-resistant Staphylococcus aureus (MRSA), Staphylococcus aureus producing penicillinase, methicillin-sensistive Staphylococcus epidermidis (MSSE), methicillin-resistant Staphylococcus epidermidis (MRSE), vancomycin-sensitive Enterococcus faecium (EFMVS), vancomycin-sensitive Enterococcus faecalis (EFSVS), vancomycin-resistant Enterococcus faecium also resistant to teicoplanin (EFMVR Van A), vancomycin-resistant Enterococcus faecium sensistive to teicoplanin (EFMVR Van B), vancomycin-resistant Enterococcus faecalis also resistant to teicoplanin (EFSVR Van A), vancomycin-resistant Enterococcus faecalis sensitive to teicoplanin (EFSVR Van B), penicillin-sensitive Streptococcus pneumoniae (PSSP) and penicillin-resistant Streptococcus pneumoniae (PSRP). Because of the inability of PSSP and PSRP to grow well in Mueller-Hinton broth, MICs with those strains were determined using either TS broth supplemented with defibrinated blood or Haemophilus test medium.

For series [2], the system named is MRSA 33591. Briefly: Time-kill assay, MRSA 33591. It is filed as cell-based, Staphylococcus aureus. The method, then:
(§2) This time-kill assay is a method for measuring the rate of bactericidal activity of a test compound. […] A rapid time-kill is desirable to quickly prevent bacterial colonization and reduce host tissue damage.
(§3) Bacteria were diluted in prewarmed media in shake flasks and incubated with shaking (200 rpm, 35° C.). At 0, 1, 4, and 24 hours samples were withdrawn from the flasks and bacteria were enumerated by plate counting. Subsequent to the initial sampling, a compound to be assayed was added to the shake flask culture. Plate counts at these intervals previous to and following addition of the compound were expressed graphically in a time-kill curve.

In the next series the test system is MSSA 13709. Briefly: Time-kill assay, MSSA 13709. The series is classed as cell-based, Staphylococcus aureus. The method, then: as §2, §3
Series [3] deals with MRSA 33591. Briefly: In vivo efficacy in neutropenic mice (thigh infection). Set-up: species or system Staphylococcus aureus. The following applies: neutropenic male CD-1 mice, MRSA 33591 thigh infection, iv, 24 hours post-treatment. The method, then:
Animals (male CD-1 mice, 20-30 g) were acquired from Charles Rivers Laboratories (Gilroy, Calif.) and allowed access to food and water ad libitum. Neutropenia was induced via 200 mg/kg intraperitoneal (IP) injection of cyclophosphamide given four and two days prior to the inoculation of bacteria.
The organism used was either a susceptible or resistant strain of clinically relevant gram positive pathogens, such as methicillin-susceptible Staphylococcus aureus (MSSA 13709) and methicillin-resistant Staphylococcus aureus (MRSA 33591). The bacterial inoculum concentration was ˜10^6 CFU/mL. Animals were lightly anesthetized with isoflurane and […] of the bacterial inoculum was injected into the anterior thigh. One hour after the inoculation, animals were dosed intravenously with vehicle or the appropriate dose of the test compound. At 0 hours and 24 hours post-treatment, the animals were euthanized (CO2 asphyxiation) and the anterior and posterior thigh collected aseptically. The thigh was placed into 10 mL sterile saline and homogenized. Dilutions of the homogenate were plated onto triptic soy agar plates which were incubated overnight. The number of bacterial colonies on a given plate was multiplied by the dilution factor, divided by the thigh weight (in grams) and expressed as log CFU/g. […]

For series [4] the following is noted: 5 wt. % dextrose buffer solution, titrated to pH 3, duplicate sample preparations.
Method: The aqueous solubility of a compound of this invention was determined using the following procedure. A 5 wt. % dextrose buffer solution at pH 2.2 was prepared by adding 1 mL of 1 N hydrochloric acid (Aldrich) to 99 mL of a 5 wt. % aqueous dextrose solution (Baxter).
A 1 mg/mL stock solution for calibration standards was then prepared by dissolving 1 mg of the test compound in 1 mL of DMSO. This solution was vortexed for 30 seconds and then sonicated for 10 minutes. The stock solution was then diluted with water to prepare calibration standards having the following concentrations: 50, 125, 250, 375 and 500 ug/mL.
Each test compound (30 mg) was weighed into a Millipore non-sterile, Ultrafree-MC 0.1 um filter unit (Millipore UFC30VVOO) and a magnetic stir bar was added to each unit. The 5 wt. % dextrose buffer solution (750 uL) was then added to each unit and these mixtures were vortexed for 5 minutes. The filter units were then placed in an Eppendorf tube rack and the tube rack was placed on top of a magnetic stirrer. […]
The calibration standards and the test samples were analyzed by reverse-phase HPLC using the following conditions:
The solubility of each test sample was calculated by comparing the peak area of the test sample to the calibration curve and multiplying by the dilution factor.
For series [5], the system named is Methicillin-resistant S. aureus (MRSA). Briefly: Minimal inhibitory concentration (MIC90), broth microdilution, MRSA strains. It is filed as cell-based, Staphylococcus aureus. The protocol: as §1
(§4) In this assay, cryopreserved bacterial cultures of reference and clinical strains were streaked for isolation on appropriate agar medium (i.e., Trypticase Soy Agar, Trypticase Soy Agar with defibrinated sheep erthrocytes, Brain Heart Infusion Agar, Chocolate Agar). Following incubation to allow formation of colonies, these plates were sealed with parafilm and stored refrigerated for up to two weeks. […] The MIC was read visually as the lowest concentration well with no bacterial growth. […]
(In general: In broth dilution the organism is exposed to a series of concentrations in liquid medium.)

Series [6] has as its system Methicillin-resistant S. epidermitis (MRSE) and other coagulase-negative staphylococci. Briefly: Minimal inhibitory concentration (MIC90), broth microdilution, MRSE and other coagulase-negative staphylococci. The series is classed as cell-based, Staphylococcus epidermidis. The method, then:
as §1, §4

As a reminder, the MIC is the lowest concentration found to suppress growth. Higher therefore signals a need for much substance. A word on the aqueous solubility: it is how much of the substance goes into solution per volume. One may read the ED50 as the dose that gives a 50% effect, or the effect in half of the subjects.

Consider `CNC(CC(C)C)C(=O)NC1C(=O)NC(CC(N)=O)C(=O)NC2C(=O)NC3C(=O)NC(C(=O)NC(C(=O)NCCCON=C(C(=O)NC4C(=O)N5C(C(=O)[O-])=C(C[n+]6ccccc6)CSC45)c4nc(N)sc4Cl)c4cc(O)cc(O)c4-c4cc3ccc4O)C(O)c3ccc(c(Cl)c3)Oc3cc2cc(c3OC2OC(CO)C(O)C(O)C2OC2CC(C)(N)C(O)C(C)O2)Oc2ccc(cc2Cl)C1O.Cl.Cl.Cl` (centres unmarked) [Compound 1], for which the MIC result in series [1] (MRSA 33591), in series [1] (MRSA MED-84), in series [1] (MRSA MED-85), in series [1] (MRSA MED-86), in series [1] (MRSA MED-87) and in series [1] (MRSA MED-88) was “≦0.1 μg/mL” in each case. The MIC result in series [1] (MRSA MED-89) was “≦0.1 μg/mL”; in series [1] (MRSA MED-103) it was “≦0.1 μg/mL”; in series [1] (MRSA MED-104), 0.10 µg/mL; in series [1] (MRSA MED-107), “≦0.1 μg/mL”; in series [1] (MRSA MED-110), 0.20 µg/mL; in series [1] (MRSA MED-572), “≦0.1 μg/mL”. The “bactericidal concentration (≧3 log decrease in bacterial cell numbers)” value in the series on MRSA 33591 [2] (MRSA 33591, in 4 hours) was at most 1 μg/mL; in the series on MSSA 13709 (MSSA 13709, in 4 hours) it was at most 1 μg/mL. The “ED50 (dose required to produce 50% of the maximum reduction in thigh titre)” value with MRSA 33591 [3] is below 0.20 mg/kg. In series [4], this molecule came in with an aqueous solubility above 47.9 mg/mL. Further, the “MIC90 (minimum inhibitory concentration for 90% of strains tested)” value in series [5] (n = 53 strains) was below 0.1 µg/mL; in series [6] (MRSE and other coagulase-negative staphylococci, n = 34 strains), below 0.1 µg/mL.

As for `CNC(CC(C)C)C(=O)NC1C(=O)NC(CC(N)=O)C(=O)NC2C(=O)NC3C(=O)NC(C(=O)NC(C(=O)NCCCON=C(C(=O)NC4C(=O)N5C(C(=O)[O-])=C(C[n+]6ccccc6)CSC45)c4csc(N)n4)c4cc(O)cc(O)c4-c4cc3ccc4O)C(O)c3ccc(c(Cl)c3)Oc3cc2cc(c3OC2OC(CO)C(O)C(O)C2OC2CC(C)(N)C(O)C(C)O2)Oc2ccc(cc2Cl)C1O` (centres unmarked) [Compound 34, reference compound], the MIC amounted to 0.17 µg/mL (≈ 0.0872 µM) in series [1] (MRSA 33591); 0.29 µg/mL (≈ 0.149 µM) in series [1] (MRSA MED-84); 0.32 µg/mL (≈ 0.164 µM) in series [1] (MRSA MED-85); 0.29 µg/mL (≈ 0.149 µM) in series [1] (MRSA MED-86); 0.49 µg/mL (≈ 0.251 µM) in series [1] (MRSA MED-87); 0.34 µg/mL (≈ 0.174 µM) in series [1] (MRSA MED-88). Besides, the MIC is 0.18 µg/mL (≈ 0.0924 µM) in series [1] (MRSA MED-89); 0.20 µg/mL (≈ 0.103 µM) in series [1] (MRSA MED-103); 0.58 µg/mL (≈ 0.298 µM) in series [1] (MRSA MED-104); 0.34 µg/mL (≈ 0.174 µM) in series [1] (MRSA MED-107); 0.49 µg/mL (≈ 0.251 µM) in series [1] (MRSA MED-110); below 0.1 µg/mL in series [1] (MRSA MED-572).

Regarding `CN[C@H](CC(C)C)C(=O)N[C@H]1C(=O)N[C@@H](CC(N)=O)C(=O)N[C@H]2C(=O)N[C@H]3C(=O)N[C@H](C(=O)N[C@H](C(=O)O)c4cc(O)cc(O)c4-c4cc3ccc4O)[C@H](O)c3ccc(c(Cl)c3)Oc3cc2cc(c3O[C@@H]2O[C@H](CO)[C@@H](O)[C@H](O)[C@H]2O[C@H]2C[C@](C)(N)[C@H](O)[C@H](C)O2)Oc2ccc(cc2Cl)[C@H]1O` [Vancomycin, vancomycin, reference compound], the “bactericidal concentration (≧3 log decrease in bacterial cell numbers)” value in the series with MRSA 33591 [2] (MRSA 33591, in 24 hours) is reported as 4 μg/mL; in the series on MSSA 13709 (MSSA 13709, in 24 hours), 4 μg/mL. Moreover, in the series with MRSA 33591 [3] (Staphylococcus aureus, read-out: ED50 (dose required to produce 50% of the maximum reduction in thigh titre)), the ED50 amounted to 9 mg/kg. Further, the MIC90 was found to be 3 µg/mL (≈ 2.07 µM) in series [5] (Staphylococcus aureus, read-out: MIC90 (minimum inhibitory concentration for 90% of strains tested)) and 4 µg/mL (≈ 2.76 µM) in series [6] (Staphylococcus epidermidis, MRSE, read-out: MIC90 (minimum inhibitory concentration for 90% of strains tested)).
